Experimental data reported in publication PMC9916866 (International Journal of Molecular Sciences, 2023).

What was measured:
AT2 receptor = test system: T1, AT2 receptor; format: binding, rat
T1 construct: expressed in transfected cells

AT1 receptor [1] = target: T2, AT1 receptor (Homo sapiens, UniProt P30556)
T2 sequence (P30556 1-359): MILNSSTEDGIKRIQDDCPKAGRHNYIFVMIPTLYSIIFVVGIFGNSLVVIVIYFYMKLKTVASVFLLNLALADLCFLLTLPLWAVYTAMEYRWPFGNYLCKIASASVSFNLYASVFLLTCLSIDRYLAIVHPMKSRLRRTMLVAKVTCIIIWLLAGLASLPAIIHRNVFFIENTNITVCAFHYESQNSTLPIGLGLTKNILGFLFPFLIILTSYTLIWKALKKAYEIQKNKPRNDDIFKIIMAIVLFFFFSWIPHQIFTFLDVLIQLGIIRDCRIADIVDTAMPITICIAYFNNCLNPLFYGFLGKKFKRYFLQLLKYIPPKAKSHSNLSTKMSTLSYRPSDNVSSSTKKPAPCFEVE

AT1 receptor [2] = target: T2, AT1 receptor; test: cell-based; format: cell-based; design: expressed in transfected cells; host or cells: HEK293T
AT1 receptor [3] = target: T2, AT1 receptor; format: cell-based; design: expressed in transfected cells; host or cells: HEK293T

Structure (SMILES)	non-specific labelling of cells compared to total labelling with Cy5-AngII alone, AT2 (AT2 receptor) [%]	increase in BRET signal (β-arrestin 2 recruitment) by the substance alone (AT1 receptor [1])	inhibition of AngII-induced β-arrestin 2 BRET signal, 1 µM candesartan (AT1 receptor [1])	activation of Gαi3 by the substance alone (AT1 receptor [2])	inhibition of AngII-induced Gαi3 activation, 1 µM candesartan (AT1 receptor [2])	activation of GαoA pathway by the substance alone (AT1 receptor [3])	inhibition of AngII-induced GαoA activation, 1 µM candesartan (AT1 receptor [3])
CC[C@H](C)[C@H](NC(=O)[C@H](Cc1ccc(O)cc1)NC(=O)[C@@H](NC(=O)[C@H](CCCNC(=N)N)NC(=O)[C@@H](N)CC(=O)O)C(C)C)C(=O)N[C@@H](Cc1c[nH]cn1)C(=O)N1CCC[C@H]1C(=O)N[C@@H](Cc1ccccc1)C(=O)O [AngII, angiotensin II]	7						
CCOc1nc2cccc(C(=O)O)c2n1Cc1ccc(-c2ccccc2-c2nnn[nH]2)cc1 [candesartan]		Neither the candesartan nor the toxin alone could induce an increase in the BRET signal	completely inhibits	Neither candesartan, an AT1 receptor antagonist, nor the toxin alone could induce the activation of Gαi3	fully inhibited	Neither the toxin nor the candesartan alone can induce activation of this pathway	blocked
